Results taken from BindingDB's records for doi:10.1016/j.chembiol.2009.01.014 (Duke University Medical Center, 2009).

Assays:
[1] = biological target: Protein farnesyltransferase/geranylgeranyltransferase type-1 subunit alpha / Protein farnesyltransferase subunit beta (Plasmodium falciparum, UniProt Q5EI73+Q5EI74); test: PfPFT IC50 Determination; details: pH 7.5; 37 °C
Method: Assays for PfPFT activity were performed with a PFT-specific scintillation assay (SPA) kit (Amersham Biosciences, Piscataway, NJ). An amount of 1 uM biotinylated lamin B peptide was used. The concentration of [3H]farnesyl pyrophosphate (FPP) was increased beyond manufacturer recommendations to 1 uM. IC50 values were calculated using linear regression analysis of the plots of [3H]FPP prenylation versus concentration of compounds.

[2] = biological target: Protein farnesyltransferase subunit beta/geranylgeranyltransferase type-1 subunit alpha (Homo sapiens, UniProt P49354+P49356); test: In Vitro PFT Activity Assay; details: pH 7.7; 30 °C
Method: In vitro inhibition assay of human PFT was done by measuring the incorporation of [3H] FPP (Amersham Biosciences, Piscataway, NJ) into wild type H-Ras (PFT). The 60,000g post-microsomal supernatant from Daudi cells was incubated in the presence of increasing concentration of compound, H-Ras substrate, and [3H] FPP. Samples were TCA-precipitated and then filtered onto glass fiber filters; unbound [3H] FPP was washed through the filters. Samples were counted on a scintillation counter and activity compared to vehicle controls to obtain IC50 values.

Chain of Protein farnesyltransferase/geranylgeranyltransferase type-1 subunit alpha / Protein farnesyltransferase subunit beta (Q5EI73 1-521): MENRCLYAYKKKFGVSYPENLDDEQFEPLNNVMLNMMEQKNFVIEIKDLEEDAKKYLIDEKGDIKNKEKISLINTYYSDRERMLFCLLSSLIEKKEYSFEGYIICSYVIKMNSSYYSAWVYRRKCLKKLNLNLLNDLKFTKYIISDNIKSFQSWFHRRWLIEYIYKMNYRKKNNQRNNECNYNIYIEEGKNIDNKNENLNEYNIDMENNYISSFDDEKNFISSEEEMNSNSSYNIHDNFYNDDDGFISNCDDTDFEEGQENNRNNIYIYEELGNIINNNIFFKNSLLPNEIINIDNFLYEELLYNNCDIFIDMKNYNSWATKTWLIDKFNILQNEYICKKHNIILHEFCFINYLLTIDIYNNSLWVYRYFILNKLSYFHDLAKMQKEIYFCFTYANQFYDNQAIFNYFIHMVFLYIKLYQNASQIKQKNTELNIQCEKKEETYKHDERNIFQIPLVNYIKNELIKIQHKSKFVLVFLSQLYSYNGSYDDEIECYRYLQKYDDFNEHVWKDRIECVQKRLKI
Chain of Protein farnesyltransferase/geranylgeranyltransferase type-1 subunit alpha / Protein farnesyltransferase subunit beta (Q5EI74 1-923): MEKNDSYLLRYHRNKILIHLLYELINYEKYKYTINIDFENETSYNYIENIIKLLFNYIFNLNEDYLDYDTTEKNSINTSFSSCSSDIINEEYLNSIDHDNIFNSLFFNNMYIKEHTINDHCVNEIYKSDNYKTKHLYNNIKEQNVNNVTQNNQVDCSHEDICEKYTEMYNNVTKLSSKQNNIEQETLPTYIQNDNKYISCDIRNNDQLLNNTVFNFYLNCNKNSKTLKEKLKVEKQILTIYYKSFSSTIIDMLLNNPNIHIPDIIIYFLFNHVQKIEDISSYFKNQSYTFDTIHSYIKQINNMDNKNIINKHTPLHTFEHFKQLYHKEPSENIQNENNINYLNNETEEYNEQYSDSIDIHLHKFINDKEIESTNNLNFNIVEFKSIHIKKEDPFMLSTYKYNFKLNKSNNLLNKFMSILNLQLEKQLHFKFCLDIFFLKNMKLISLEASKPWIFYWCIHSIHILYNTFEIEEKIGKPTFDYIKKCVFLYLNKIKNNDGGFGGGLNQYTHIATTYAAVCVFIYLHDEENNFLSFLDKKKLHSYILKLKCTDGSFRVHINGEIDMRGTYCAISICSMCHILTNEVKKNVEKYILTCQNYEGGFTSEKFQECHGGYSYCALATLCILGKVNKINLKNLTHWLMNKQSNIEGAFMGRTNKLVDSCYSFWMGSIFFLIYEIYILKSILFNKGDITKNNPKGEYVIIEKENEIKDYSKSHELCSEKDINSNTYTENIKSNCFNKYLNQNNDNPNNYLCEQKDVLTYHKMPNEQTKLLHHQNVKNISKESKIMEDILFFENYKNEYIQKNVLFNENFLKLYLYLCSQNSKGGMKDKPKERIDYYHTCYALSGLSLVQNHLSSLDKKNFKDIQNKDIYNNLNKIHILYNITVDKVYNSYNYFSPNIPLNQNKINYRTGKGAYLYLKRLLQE

Row | Compound | IC50 [1] | IC50 [2]
1 | Cc1ccccc1S(=O)(=O)N(CCN(Cc1cncn1C)c1ccc(C#N)cc1)CC1CCN(C(=O)OC(C)(C)C)CC1 [ethylenediamine scaffold, 5] | 3 nM | 
2 | Cn1cnc(S(=O)(=O)N(CCN(Cc2cncn2C)c2ccc(C#N)cc2)CC2CCN(C(=O)OC(C)(C)C)CC2)c1 [ethylenediamine scaffold, 4] | 1.2 nM | 3700 nM
3 | Cn1cnc(S(=O)(=O)N(CCN(Cc2cncn2C)c2ccc(C#N)cc2)Cc2ccccc2)c1 [1-Methyl-1H-imidazole-4-sulfonic Acid Benzyl-{2-[(4-cyanophenyl)-(3-methyl-3H-imidazol-4-ylmethyl)amino]ethyl}amide] |  | 56 nM
4 | Cn1cncc1CN(CCN(CC1CCN(C(=O)OC(C)(C)C)CC1)S(=O)(=O)c1ccccc1-c1cccc(CCC(=O)O)c1)c1ccc(C#N)cc1 [ethylenediamine scaffold, 10] | 70 nM | 800 nM
5 | Cc1ccccc1S(=O)(=O)N(CCN(Cc1cncn1C)c1ccc(C#N)cc1)Cc1ccccc1 [ethylenediamine scaffold, 7] | 5 nM | 160 nM
